Assay results published in paper PMC7099627, “Design, synthesis, heme binding and density functional theory studies of isoindoline-dione-4-aminoquinolines as potential antiplasmodials” (Future Medicinal Chemistry, 2019).
Read-outs that look alike come from different tables or passages of the source.

How the values were obtained:
[1] = test system: chloroquine-resistant W2 strain of Plasmodium falciparum; experiment: Antiplasmodial activity, growth inhibition by flow cytometry; format: cell-based
Procedure: The compounds were added from DMSO stocks; the maximum concentration of DMSO used was 0.1%. Controls without inhibitors included 0.1% DMSO. […] Fixed parasites were then transferred to 0.1% Triton X-100 in phosphate-buffered saline containing 1 nM YOYO-1 dye (Molecular Probes, MA, USA). Parasitemia was determined from dot plots (forward scatter vs fluorescence) acquired on a FACSort flow cytometer using Cell Quest software (Beckton Dickinson, NJ, USA). IC50 values for growth inhibition were determined from plots of percent control parasitemia over inhibitor concentration using the Prism 5.0 program (GraphPad Software, CA, USA), with data from duplicate experiments fitted by nonlinear regression.
The synthesized C4/C5substituted-isoindoline-1,3-diones-4-aminoquinolines were screened for their antiplasmodial activity against CQR (W2) strain of P. falciparum (Table 1).

[2] = test system: Vero cells; experiment: Cytotoxicity assay (resazurin cell viability); format: cell-based; conditions: for SI (selectivity index): Vero cytotoxicity vs W2 antiplasmodial IC50
Procedure: (§1) Cell viability was determined using Vero cells (ATCC, Sigma, Munich, Germany), which were grown in RPMI medium (Gibco) supplemented with 10% decomplemented fetal calf serum under 5% CO2 atmosphere.

[3] = Cytotoxicity assay (resazurin cell viability); format: cell-based; conditions: African green monkey; mammalian Vero cells, 24 h incubation, resazurin
Procedure: as §1

[4] = Heme-binding spectrophotometric titration (HypSpec); conditions: 40% aq. DMSO, heme 12 μM
Procedure: The resultant 40% DMSO solutions maintain the hematin solutions in the monomeric state at concentrations used. […] All the working solutions were kept in dark to avoid photo-sensitivity. Diluent solutions were prepared by dissolving 1 mL of 0.02 M HEPES and 4 mL of spectroscopic grade DMSO and made up to a final volume of 10 mL with ultrapure, HPLC grade Hipersolv water.

[5] = chloroquine-resistant W2 strain, 48 h incubation, read-out: IC50
[6] = Plasmodium falciparum, W2, 48 h, chloroquine-resistant W2 strain, 48 h incubation, read-out: IC50
[7] = mammalian Vero cells, 24 h incubation, resazurin, read-out: IC50 (μM cytotoxicity)
[8] = Plasmodium falciparum, W2, chloroquine-resistant W2 strain, Figure 1, read-out: IC50

O=C1c2cccc(N3CCCCC3)c2C(=O)N1CCNc1ccnc2cc(Cl)ccc12 [4a]
IC50 [1, 5]: 0.158 µM
IC50 [2]: < 28.8 µM

O=C1c2cccc(N3CCCCC3)c2C(=O)N1CCCNc1ccnc2cc(Cl)ccc12 [4b]
IC50 [1, 6]: 0.162 µM
SI (selectivity index) [2]: 344.4
IC50 [2, 7]: 55.8 µM

O=C1c2cccc(N3CCCCC3)c2C(=O)N1CCCCNc1ccnc2cc(Cl)ccc12 [4c, 2-(4-((7-chloroquinolin-4-yl)amino)butyl)-4-(piperidin-1-yl)isoindoline-1,3-dione]
IC50 [1, 6]: 0.05 µM
IC50 [1, 5]: 0.051 µM
SI (selectivity index) [2]: 1060.7
IC50 [2, 7]: 54.1 µM

O=C1c2cccc(N3CCCCC3)c2C(=O)N1CCCCCCNc1ccnc2cc(Cl)ccc12 [4d, 2-(6-((7-chloroquinolin-4-yl)amino)hexyl)-4-(piperidin-1-yl)isoindoline-1,3-dione]
IC50 [1, 6]: 0.075 µM
SI (selectivity index) [2]: 2720
IC50 [2, 7]: 204 µM

O=C1c2ccc(N3CCCCC3)cc2C(=O)N1CCNc1ccnc2cc(Cl)ccc12 [4e]
IC50 [1, 5]: 0.163 µM
IC50 [2]: < 28.8 µM

O=C1c2ccc(N3CCCCC3)cc2C(=O)N1CCCNc1ccnc2cc(Cl)ccc12 [4f, 2-(3-((7-chloroquinolin-4-yl)amino)propyl)-5-(piperidin-1-yl)isoindoline-1,3-dione]
IC50 [1, 6]: 0.176 µM
SI (selectivity index) [2]: 317
IC50 [2, 7]: 55.8 µM

O=C1c2ccc(N3CCCCC3)cc2C(=O)N1CCCCNc1ccnc2cc(Cl)ccc12 [4g]
IC50 [1, 6]: 0.077 µM
IC50 at 24 h [3]: < 27 µM

O=C1c2ccc(N3CCCCC3)cc2C(=O)N1CCCCCCNc1ccnc2cc(Cl)ccc12 [4h]
IC50 [1, 5]: 0.123 µM
IC50 [2]: < 25.5 µM

O=C1c2cccc(N3CCOCC3)c2C(=O)N1CCNc1ccnc2cc(Cl)ccc12 [4i]
IC50 [1, 6]: 0.18 µM
IC50 at 24 h [3]: < 28.6 µM

O=C1c2cccc(N3CCOCC3)c2C(=O)N1CCCNc1ccnc2cc(Cl)ccc12 [4j]
IC50 [1, 6]: 0.276 µM
SI (selectivity index) [2]: 805
IC50 [2, 7]: 222 µM

O=C1c2cccc(N3CCOCC3)c2C(=O)N1CCCCNc1ccnc2cc(Cl)ccc12 [4k, 2-(4-((7-chloroquinolin-4-yl)amino)butyl)-4-morpholinoisoindoline-1,3-dione]
IC50 [1, 6]: 0.071 µM
SI (selectivity index) [2]: 1517
IC50 [2, 7]: 108 µM

O=C1c2cccc(N3CCOCC3)c2C(=O)N1CCCCCCNc1ccnc2cc(Cl)ccc12 [4l]
IC50 [1, 6]: 0.025 µM
IC50 [2, 7]: 50.8 µM

O=C1c2ccc(N3CCOCC3)cc2C(=O)N1CCNc1ccnc2cc(Cl)ccc12 [4m, 2-(2-((7-chloroquinolin-4-yl)amino)ethyl)-5-morpholinoisoindoline-1,3-dione]
IC50 [1, 6]: 0.37 µM
IC50 at 24 h [3]: < 28.6 µM

O=C1c2ccc(N3CCOCC3)cc2C(=O)N1CCCNc1ccnc2cc(Cl)ccc12 [4n]
IC50 [1, 6]: 0.118 µM
SI (selectivity index) [2]: 1883
IC50 [2, 7]: 222 µM

O=C1c2ccc(N3CCOCC3)cc2C(=O)N1CCCCNc1ccnc2cc(Cl)ccc12 [4o, 2-(4-((7-chloroquinolin-4-yl)amino)butyl)-5-morpholinoisoindoline-1,3-dione]
IC50 [1, 6]: 0.049 µM
IC50 at 24 h [3]: < 26.9 µM

O=C1c2ccc(N3CCOCC3)cc2C(=O)N1CCCCCCNc1ccnc2cc(Cl)ccc12 [4p]
IC50 [1, 6]: 0.019 µM
IC50 at 24 h [3]: < 25.4 µM

O=C1c2ccc(N3CCN(CCO)CC3)cc2C(=O)N1CCNc1ccnc2cc(Cl)ccc12 [4q]
IC50 [1, 6]: 0.044 µM
IC50 at 24 h [3]: < 26 µM

O=C1c2ccc(N3CCN(CCO)CC3)cc2C(=O)N1CCCNc1ccnc2cc(Cl)ccc12 [4r, 2-(3-((7-chloroquinolin-4-yl)amino)propyl)-5-(4-(2-hydroxyethyl)piperazin-1-yl)isoindoline-1,3-dione]
IC50 [1, 8]: 0.0066 µM
activity relative to CQ (fold higher) ([1]; antiplasmodial activity vs CQ): ~12 fold
IC50 [1, 5]: 0.006 µM
IC50 at 24 h [3]: < 25.3 µM
Monomeric Heme log K ([4]; pH 5.6 (MES buffer)): 5.41
Monomeric Heme log K ([4]; pH 7.4 (HEPES buffer)): 5.14

O=C1c2ccc(N3CCN(CCO)CC3)cc2C(=O)N1CCCCNc1ccnc2cc(Cl)ccc12 [4s, 2-(4-((7-chloroquinolin-4-yl)amino)butyl)-5-(4-(2-hydroxyethyl)piperazin-1-yl)isoindoline-1,3-dione]
IC50 [1, 6]: 0.014 µM
IC50 at 24 h [3]: < 24.6 µM

O=C1c2ccc(N3CCN(CCO)CC3)cc2C(=O)N1CCCCCCNc1ccnc2cc(Cl)ccc12 [4t]
IC50 [1, 6]: 0.015 µM
IC50 at 24 h [3]: < 23.3 µM

C[C@@H]1CC[C@H]2[C@@H](C)C(=O)O[C@@H]3O[C@@]4(C)CC[C@@H]1[C@]32OO4 [ART, Artemisinin, reference compound]
IC50 [1, 6]: 0.005 µM
IC50 [1, 8]: 0.0053 µM

CCN(CC)CCCC(C)Nc1ccnc2cc(Cl)ccc12 (stereo not shown) [CQ, Chloroquine, reference compound]
IC50 ([1]; Plasmodium falciparum, W2, 48 h): 0.079 µM
